Laboratory results published in PubChem BioAssay AID296 (DTP/NCI, 2004).
Records with an inconclusive call do not appear.

System: MX-1 breast xenograft, nude mice, tumor weight T/C
Assay: NCI In Vivo Anticancer Drug Screen. Data for tumor model Human Mammary Carcinoma MX-1 Xenograft (intrarenal inoculation) in NU/NU Swiss (nude) mice
Details: endpoint: mean tumor weight change, higher = larger tumour
Method: The antitumor activity of compounds was measured in mice bearing transplantable tumors. Survival or tumor size were measured and the results are expressed as the measurement made in the treated group (T) divided by the measurement made in the vehicle treated control group (C). The tumor model used in this assay is Human Mammary Carcinoma MX-1 Xenograft (intrarenal inoculation) in NU/NU Swiss (nude) mice

[1] = dose: 400.0 mg/kg/injection, schedule: Q01DX010 (sc), vehicle: saline with Tween-80
[2] = dose: 300.0 mg/kg/injection, schedule: Q04DX003 (sc), vehicle: saline with Tween-80
[3] = dose: 600.0 mg/kg/injection, schedule: Q04DX003 (sc), vehicle: saline with Tween-80
[4] = dose: 1200.0 mg/kg/injection, schedule: Q04DX003 (sc), vehicle: saline with Tween-80
[5] = dose: 2400.0 mg/kg/injection, schedule: Q04DX003 (sc), vehicle: saline with Tween-80

## CC(C)CCCCCCCCCCCCC(=O)NCC(=O)NC1C(C)OC(Nc2ncnc3nc[nH]c23)C(O)C1O (configuration not stated)
dose: 1.0 mg/kg/injection, schedule: Q01DX010 (sc), vehicle: distilled water + Tween-80
  T/C: 68 % of control
dose: 2.0 mg/kg/injection, schedule: Q01DX010 (sc), vehicle: distilled water + Tween-80
  T/C: 75 % of control
dose: 4.0 mg/kg/injection, schedule: Q01DX010 (sc), vehicle: distilled water + Tween-80
  T/C: 55 % of control
dose: 8.0 mg/kg/injection, schedule: Q01DX010 (sc), vehicle: distilled water + Tween-80
  T/C: 25 % of control

## O=c1[nH]c(=O)n(C2CC(O)C(CO)O2)cc1I (configuration not stated)
dose: 100.0 mg/kg/injection, schedule: Q01DX010 (sc), vehicle: saline with Tween-80
  T/C: 55 % of control
dose: 200.0 mg/kg/injection, schedule: Q01DX010 (sc), vehicle: saline with Tween-80
  T/C: 38 % of control
[1]
  T/C: 48 % of control

## [N-]=[N+]=CC(=O)CCC(=O)C=[N+]=[N-]
dose: 3.0 mg/kg/injection, schedule: Q01DX010 (sc), vehicle: DMSO
  T/C: -72 % of control
dose: 6.0 mg/kg/injection, schedule: Q01DX010 (sc), vehicle: DMSO
  T/C: -42 % of control
dose: 12.0 mg/kg/injection, schedule: Q01DX010 (sc), vehicle: DMSO
  T/C: 5 % of control
dose: 15.0 mg/kg/injection, schedule: Q04DX003 (sc), vehicle: DMSO
  T/C: 6 % of control
dose: 15.0 mg/kg/injection, schedule: Q04DX003 (sc), vehicle: saline
  T/C: 23 % of control
dose: 30.0 mg/kg/injection, schedule: Q04DX003 (sc), vehicle: DMSO
  T/C: 3 % of control
dose: 30.0 mg/kg/injection, schedule: Q04DX003 (sc), vehicle: saline
  T/C: 16 % of control
dose: 60.0 mg/kg/injection, schedule: Q04DX003 (sc), vehicle: saline
  T/C: 6 % of control
dose: 120.0 mg/kg/injection, schedule: Q04DX003 (sc), vehicle: DMSO
  T/C: -13 % of control
dose: 120.0 mg/kg/injection, schedule: Q04DX003 (sc), vehicle: saline
  T/C: 8 % of control

## Cc1oc2c(C)c3oc(=O)cc(C)c3cc2c1CCl
[2]
  T/C: 109 % of control
[3]
  T/C: 75 % of control
[4]
  T/C: 83 % of control
[5]
  T/C: 54 % of control

## O=C(N/N=C\c1cc(Br)cc(Br)c1O)N/N=C/c1cc(Br)cc(Br)c1O
[1]
  T/C: 72 % of control
dose: 800.0 mg/kg/injection, schedule: Q01DX010 (sc), vehicle: saline with Tween-80
  T/C: 61 % of control

## CNC(=O)SCC(N)C(=O)O (configuration not stated)
dose: 112.5 mg/kg/injection, schedule: Q04DX003 (ip), vehicle: saline
  T/C: 86 % of control
dose: 225.0 mg/kg/injection, schedule: Q04DX003 (ip), vehicle: saline
  T/C: 67 % of control
dose: 450.0 mg/kg/injection, schedule: Q04DX003 (ip), vehicle: saline
  T/C: 27 % of control
dose: 900.0 mg/kg/injection, schedule: Q04DX003 (ip), vehicle: saline
  T/C: 17 % of control

## O=C1NC(=O)C2C3C=CC(C12)C1C2C(=O)NC(=O)C2C31 (configuration not stated)
dose: 400.0 mg/kg/injection, schedule: Q04DX003 (sc), vehicle: saline with Tween-80
  T/C: 68 % of control
dose: 800.0 mg/kg/injection, schedule: Q04DX003 (sc), vehicle: saline with Tween-80
  T/C: 57 % of control

## O=C(c1cccnc1)c1cc(-c2ccccn2)c(=O)n2ccccc12
[2]
  T/C: 66 % of control
[3]
  T/C: 103 % of control
[4]
  T/C: 81 % of control
[5]
  T/C: 120 % of control

## N=C(N)CCCCCCCCC(=N)N
dose: 18.75 mg/kg/injection, schedule: Q04DX003 (sc), vehicle: saline
  T/C: 124 % of control

## O=C(O)CCCCCCCC(=O)O
dose: 300.0 mg/kg/injection, schedule: Q04DX003 (sc), vehicle: distilled water + Tween-80
  T/C: 151 % of control
dose: 600.0 mg/kg/injection, schedule: Q04DX003 (sc), vehicle: distilled water + Tween-80
  T/C: 150 % of control
dose: 1200.0 mg/kg/injection, schedule: Q04DX003 (sc), vehicle: distilled water + Tween-80
  T/C: 80 % of control

## CN(C)[C@@H]1C(=O)C(C(=O)NCN2CCN(C(=N)N=C(N)N)CC2)=C(O)[C@@]2(O)C(=O)C3=C(O)c4c(O)cccc4[C@@](C)(O)[C@H]3C[C@@H]12
dose: 2.5 mg/kg/injection, schedule: Q04DX003 (ip), vehicle: suspension in saline
  T/C: 100 % of control
dose: 5.0 mg/kg/injection, schedule: Q04DX003 (ip), vehicle: suspension in saline
  T/C: 28 % of control

## COc1cc2cc(c1Cl)N(C)C(=O)C[C@H](OC(=O)[C@H](C)N(C)C(C)=O)[C@]1(C)O[C@H]1[C@H](C)[C@@H]1C[C@@](O)(NC(=O)O1)[C@H](OC)C=C/C=C(\C)C2
dose: 50.0 micrograms/kg/injection, schedule: Q01DX010 (sc), vehicle: Klucel (hydroxypropylcellulose) (HPC)
  T/C: 99 % of control
dose: 100.0 micrograms/kg/injection, schedule: Q01DX010 (sc), vehicle: Klucel (hydroxypropylcellulose) (HPC)
  T/C: 67 % of control
dose: 200.0 micrograms/kg/injection, schedule: Q01DX010 (sc), vehicle: Klucel (hydroxypropylcellulose) (HPC)
  T/C: -74 % of control
